# Like-named read-outs stand apart in the source and are kept apart here.
# Experiments:
# [1] = target: T1, purine nucleoside phosphorylase (Geobacillus stearothermophilus, UniProt P77834); experiment: Substrate specificity: phosphorolysis of purine nucleoside substrates by purified enzyme; type: biochemical, Bacillus stearothermophilus TH6-2; details: for activity at 10000 µM: 10 min; for Substrate specificity of purine nucleoside phosphorylase, in words: within the range tested
# T1 construct: nucleoside phosphorylase obtained by extraction/purification from Bacillus stearothermophilus TH6-2; endogenous in cells; host or cells: Bacillus stearothermophilus TH6-2 (FERM BP-2758), enzyme purified in house from the wild cells
# T1 sequence (P77834 1-274): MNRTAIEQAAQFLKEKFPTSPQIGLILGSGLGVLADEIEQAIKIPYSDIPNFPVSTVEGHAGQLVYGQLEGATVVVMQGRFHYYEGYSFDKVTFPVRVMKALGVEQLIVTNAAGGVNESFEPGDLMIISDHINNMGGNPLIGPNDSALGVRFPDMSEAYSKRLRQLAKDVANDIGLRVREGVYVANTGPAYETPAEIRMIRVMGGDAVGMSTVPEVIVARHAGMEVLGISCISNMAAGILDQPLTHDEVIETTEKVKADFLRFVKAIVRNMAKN
# Method: Into 1.0 ml of a substrate solution (aqueous solution of pH 8.0 containing 20 mM inosine and 0.1M potassium dihydrogenphosphate) is added 20 μl of an enzyme solution (50 mM acetate buffer (pH 6.0) containing 1 μg of purified enzyme), and the reaction is carried out at 50° C. for 10 minutes. Then the reaction is stopped by addition of HCl to a final concentration of 0.1N, and also cooling at 0° C. for 10 minutes. Next, the reaction is subjected to centrifugation, and the supernatant obtained is then subjected to the HPLC method (column: YMC A-312 (manufactured by Yamamura Kagaku Kenkyusho, K.K.), eluent: 20 mM Tris-HCl buffer (pH 7.5) containing 5.0% acetonitrile, detection: 260 nm) to quantitate the hypoxanthine formed. The enzyme amount forming 1 μmol of hypoxanthine per one minute is defined as one unit ("U").
# (§1) By the use of an aqueous solution of pH 8.0 containing 10 mM of a nucleoside and 50 mM of potassium dihydrogenphosphate as a substrate solution, the reaction is carried out at 50° C. for 10 minutes, and after the reaction, except for quantitating the base of the nucleoside according to the HPLC method, the same method as in the assay of purine nucleoside phosphorylase activity is conducted.
# [2] = target: T2, pyrimidine nucleoside phosphorylase (Geobacillus stearothermophilus, UniProt P77836); experiment: Substrate specificity: phosphorolysis of pyrimidine nucleoside substrates by purified enzyme; type: biochemical, Bacillus stearothermophilus TH6-2; details: for Amount of Base Formed / Relative Activity: 10 mM nucleoside, 50 mM potassium dihydrogenphosphate, pH 8.0, 50° C., 10 minutes; for Substrate specificity of pyrimidine nucleoside phosphorylase, in words: within the range tested
# T2 construct: nucleoside phosphorylase obtained by extraction/purification from Bacillus stearothermophilus TH6-2; endogenous in cells; host or cells: Bacillus stearothermophilus TH6-2 (FERM BP-2758), enzyme purified in house from the wild cells
# T2 sequence (P77836 1-433): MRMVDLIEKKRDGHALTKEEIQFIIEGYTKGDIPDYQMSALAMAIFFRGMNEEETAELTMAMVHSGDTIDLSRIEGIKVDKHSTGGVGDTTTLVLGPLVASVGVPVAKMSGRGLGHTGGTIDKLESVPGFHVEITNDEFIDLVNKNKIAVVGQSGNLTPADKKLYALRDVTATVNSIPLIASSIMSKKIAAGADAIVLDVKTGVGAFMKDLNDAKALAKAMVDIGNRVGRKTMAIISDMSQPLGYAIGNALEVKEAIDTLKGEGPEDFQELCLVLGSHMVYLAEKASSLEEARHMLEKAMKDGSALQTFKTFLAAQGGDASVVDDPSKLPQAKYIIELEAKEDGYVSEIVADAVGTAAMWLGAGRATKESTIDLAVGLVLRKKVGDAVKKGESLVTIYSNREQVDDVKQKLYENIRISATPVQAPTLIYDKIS
# Method: Except for using uridine in place of inosine in the substrate solution and quantitating uracil according to the HPLC method, the same method as in the above-described assay of purine nucleoside phosphorylase activity is conducted. The amount of enzyme forming 1 μmol of uracil per one minute is defined as one unit.
# as §1
# [3] = 10 mM nucleoside, 50 mM potassium dihydrogenphosphate, pH 8.0, 50° C., 10 minutes
# [4] = 10 mM nucleoside, 50 mM potassium dihydrogenphosphate, pH 8.0, 50° C., 10 minutes, read-out: Relative Activity
# [5] = pH 8, read-out: Relative Activity
Structure (SMILES),"Amount of Base Formed [1, 3]","activity at 10000 µM [1, 4]",Amount of Base Formed [2],Relative Activity [2],other results
Nc1ncnc2c1ncn2[C@H]1C[C@H](O)[C@@H](CO)O1 [2'-Deoxyadenosine],0 μmol/10 min.,0%,–,–,–
Nc1ccn([C@H]2C[C@H](O)[C@@H](CO)O2)c(=O)n1 [2'-Deoxycytidine],–,–,0 μmol/10 min.,0%,–
Nc1nc2c(ncn2[C@H]2C[C@H](O)[C@@H](CO)O2)c(=O)[nH]1 [2'-Deoxyguanosine],2.18 μmol/10 min.,85%,–,–,"Substrate specificity of purine nucleoside phosphorylase, in words [1]: specific"
OC[C@H]1O[C@@H](n2cnc3c(O)ncnc32)C[C@@H]1O [2'-Deoxyinosine],2.54 μmol/10 min.,100%,–,–,"Substrate specificity of purine nucleoside phosphorylase, in words [1]: specific"
O=c1ccn([C@H]2C[C@H](O)[C@@H](CO)O2)c(=O)[nH]1 [2'-Deoxyuridine],–,–,2.55 μmol/10 min.,100%,"Substrate specificity of pyrimidine nucleoside phosphorylase, in words [2]: specific"
Nc1ncnc2c1ncn2[C@@H]1O[C@H](CO)C[C@H]1O [3'-Deoxyadenosine],0 μmol/10 min.,0%,–,–,–
OC[C@@H]1C[C@@H](O)[C@H](n2cnc3c(O)ncnc32)O1 [3'-Deoxyinosine],0 μmol/10 min.,0%,–,–,–
Nc1ncnc2c1ncn2[C@@H]1O[C@H](CO)[C@@H](O)[C@H]1O [Adenosine],0.15 μmol/10 min.,–,–,–,"activity at 10000 µM [1, 5]: 5%; Substrate specificity of purine nucleoside phosphorylase, in words [1]: does not recognize them as the substrate"
Nc1ncnc2c1ncn2[C@@H]1O[C@H](CO)[C@@H](O)[C@@H]1O [Arabinofuranosyl adenine],–,–,–,–,"activity at 10000 µM [1, 5]: 0%"
O=c1ccn([C@@H]2O[C@H](CO)[C@@H](O)[C@@H]2O)c(=O)[nH]1 [Arabinofuranosyl uracil],–,–,–,0%,–
O=c1ccn2c(n1)O[C@H]1[C@H](O)[C@@H](CO)O[C@H]12 [Cyclouridine],–,–,0 μmol/10 min.,0%,–
Nc1ccn([C@@H]2O[C@H](CO)[C@@H](O)[C@H]2O)c(=O)n1 [Cytidine],–,–,0 μmol/10 min.,0%,"Substrate specificity of pyrimidine nucleoside phosphorylase, in words [2]: does not recognize them as the substrate"
Nc1nc2c(ncn2[C@@H]2O[C@H](CO)[C@@H](O)[C@H]2O)c(=O)[nH]1 [Guanosine],2.15 μmol/10 min.,84%,–,–,"Substrate specificity of purine nucleoside phosphorylase, in words [1]: specific"
OC[C@H]1O[C@@H](n2cnc3c(O)ncnc32)[C@H](O)[C@@H]1O [Inosine],2.55 μmol/10 min.,100%,–,–,"Substrate specificity of purine nucleoside phosphorylase, in words [1]: specific"
O=c1[nH]cc([C@@H]2O[C@H](CO)[C@@H](O)[C@H]2O)c(=O)[nH]1 [Pseudouridine],–,–,0 μmol/10 min.,0%,–
Cc1cn([C@@H]2O[C@H](CO)[C@@H](O)[C@H]2O)c(=O)[nH]c1=O [Ribofuranosyl thymine],–,–,–,38%,–
Cc1cn([C@H]2C[C@H](O)[C@@H](CO)O2)c(=O)[nH]c1=O [Thymidine],–,–,1.71 μmol/10 min.,67%,"Substrate specificity of pyrimidine nucleoside phosphorylase, in words [2]: specific"
O=c1ccn([C@@H]2O[C@H](CO)[C@@H](O)[C@H]2O)c(=O)[nH]1 [Uridine],–,–,1.73 μmol/10 min.,68%,"Substrate specificity of pyrimidine nucleoside phosphorylase, in words [2]: specific"

# Reference: US5506122A, “Process for producing nucleosides” (Yamasa Shoyu Kabushiki Kaisha, priority 1989, dated 1996)
